According to PMC5729429, “Gimatecan exerts potent antitumor activity against gastric cancer in vitro and in vivo via AKT and MAPK signaling pathways” (Journal of Translational Medicine, 2017):
Counter-ions that a name gives are not always drawn.

Test system: HGC27 cells
Assay: Cell viability assay (CCK-8), HGC27
Type: cell-based
Details: Homo sapiens, HGC-27, Fig. S1A 48 h exposure, 0–1 µM, read-out: IC50 antiproliferative effect
Procedure: Human GC cell lines SNU-1, HGC27 and MGC803 were purchased from Peking Union Medical College, and the NCI-N87 cell line was a gift from You-yong Lv, Ph.D. (Peking University Cancer Hospital and Institute). Cells were cultured in RPMI 1640 medium and Dulbecco’s Modified Eagle Medium (Gibco-BRL, MD, USA), respectively, supplemented with 10% fetal bovine serum (Gibco-BRL), 100 U/ml penicillin (Gibco-BRL) and […] streptomycin (Gibco-BRL). Cells were incubated in a humidified incubator (37 °C) supplemented with 5% CO2.
SNU-1, HGC27, MGC803 and NCI-N87 cells (5000 cells/well) were seeded in 96-well plates and incubated overnight in complete medium, followed by exposure to gimatecan (0–1 µM) or irinotecan (0–1 µM) for 24, 48, or 72 h. Cell viability was measured using a Cell Counting Kit-8 (Dojindo, Kumamoto, Japan) according to the manufacturer’s instructions. Absorbance at 450 nm was measured using a microplate spectrophotometer. All experiments were repeated at least three times.

SMILES | IC50 [nM]
CC[C@@]1(O)C(=O)OCc2c1cc1n(c2=O)Cc2c-1nc1ccccc1c2/C=N/OC(C)(C)C [Gimatecan, 7-t-butoxyiminomethylcamptothecin] | 1.63
CCc1c2c(nc3ccc(OC(=O)N4CCC(N5CCCCC5)CC4)cc13)-c1cc3c(c(=O)n1C2)COC(=O)[C@]3(O)CC [Irinotecan, irinotecan hydrochloride] | 152
